Assay results: paper PMC5778071, “Development of matrix metalloproteinase-targeted probes for lung inflammation detection with positron emission tomography” (Scientific Reports, 2018)

Assays:
Assay type in all cases: biochemical
recombinant human MMP-2 = biological target: T1, recombinant human MMP-2 (Homo sapiens, UniProt P08253); assay: Competitive fluorogenic enzyme activity assay, MMP-2; conditions: fluorogenic substrate 5 μM, 5 nM enzyme, 30 min; read-out: IC50 toward MMP-2
T1 construct: purchased Anaspec Inc. AS72005
T1 sequence (P08253 110-660): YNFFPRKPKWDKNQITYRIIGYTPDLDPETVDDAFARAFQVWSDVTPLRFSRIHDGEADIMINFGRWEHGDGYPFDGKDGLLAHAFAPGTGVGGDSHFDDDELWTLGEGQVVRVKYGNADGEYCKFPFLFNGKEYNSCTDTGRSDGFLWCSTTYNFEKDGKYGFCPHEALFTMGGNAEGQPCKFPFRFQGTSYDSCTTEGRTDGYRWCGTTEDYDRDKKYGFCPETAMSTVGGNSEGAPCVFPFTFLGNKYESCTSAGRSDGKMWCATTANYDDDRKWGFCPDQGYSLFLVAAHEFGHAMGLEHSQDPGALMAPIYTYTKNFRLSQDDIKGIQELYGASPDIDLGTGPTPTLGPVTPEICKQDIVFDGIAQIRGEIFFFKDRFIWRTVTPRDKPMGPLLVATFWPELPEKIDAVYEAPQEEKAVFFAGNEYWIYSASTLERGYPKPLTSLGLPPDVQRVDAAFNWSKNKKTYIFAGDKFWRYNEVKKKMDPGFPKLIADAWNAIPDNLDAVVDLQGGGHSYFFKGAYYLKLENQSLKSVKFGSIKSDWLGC
Protocol: (§1) Determination of the IC50 toward human MMP-2, MMP-9, MMP-12 and MMP-13 was performed by a competitive enzyme activity assay according to a literature procedure. The assay was performed by incubating 5 μM of the synthesized fluorogenic peptide substrate Mca-Pro-Leu-Gly-Leu-Dpa(Dnp)-Ala-Arg-NH2 with 5 nM recombinant human MMP-2 (AS72005, Anaspec Inc., CA, USA), MMP-9 (911-MP, R&D Systems, MN, USA), MMP-12 (917-MP, R&D Systems) and MMP-13 (AS72011, Anaspec) along with various concentrations of ML5, I-ML5, PFB, PFP, IPFB, and IPFP (0.2–365 nM) in a buffer (pH 7.5, 50 mM tris(hydroxymethyl)aminomethane, 10 mM calcium chloride, 150 mM sodium chloride, and 0.01% Brij-35) containing 5% dimethyl sulfoxide. The increase in fluorescence over time was measured using a SpectraMax M2e microplate reader (Molecular Devices Inc., CA, USA) with an excitation wavelength of 325 nm and an emission wavelength of 395 nm. The fluorescence intensity after 30 min was plotted as a function of the concentration of each of the compounds on a logarithmic scale to produce an inhibition curve that was subsequently fit with a sigmoidal function by a least squares method. The IC50 values were calculated from the inhibition curves using GraphPad Prism 6 (GraphPad Software, Inc., CA, USA).

recombinant human MMP-9 = biological target: T2, recombinant human MMP-9 (Homo sapiens, UniProt P14780); assay: Competitive fluorogenic enzyme activity assay, MMP-9; conditions: fluorogenic substrate 5 μM, 5 nM enzyme, 30 min; read-out: IC50 toward MMP-9
T2 construct: purchased R&D Systems 911-MP
T2 sequence (P14780 94-707): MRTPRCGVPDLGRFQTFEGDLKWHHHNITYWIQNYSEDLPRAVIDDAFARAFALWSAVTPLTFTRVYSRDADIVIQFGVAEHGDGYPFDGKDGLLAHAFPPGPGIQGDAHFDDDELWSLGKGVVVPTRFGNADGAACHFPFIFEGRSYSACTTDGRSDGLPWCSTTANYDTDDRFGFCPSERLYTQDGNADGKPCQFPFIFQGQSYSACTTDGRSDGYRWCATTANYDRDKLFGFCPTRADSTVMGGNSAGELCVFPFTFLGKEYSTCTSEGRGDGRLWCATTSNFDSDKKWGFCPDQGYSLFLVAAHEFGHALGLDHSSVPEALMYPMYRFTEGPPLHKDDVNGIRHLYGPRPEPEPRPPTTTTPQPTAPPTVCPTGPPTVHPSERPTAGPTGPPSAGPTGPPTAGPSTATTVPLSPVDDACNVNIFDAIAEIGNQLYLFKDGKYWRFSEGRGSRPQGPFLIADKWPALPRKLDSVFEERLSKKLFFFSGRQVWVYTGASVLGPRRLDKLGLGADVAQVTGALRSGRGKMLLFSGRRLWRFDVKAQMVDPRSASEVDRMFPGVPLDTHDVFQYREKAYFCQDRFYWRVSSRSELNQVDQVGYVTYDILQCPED
Protocol: as §1

recombinant human MMP-12 = biological target: T3, recombinant human MMP-12 (Homo sapiens, UniProt P39900); assay: Competitive fluorogenic enzyme activity assay, MMP-12; conditions: for IC50: fluorogenic substrate 5 μM, 5 nM enzyme, 30 min, read-out: IC50 toward MMP-12
T3 construct: purchased R&D Systems 917-MP
T3 sequence (P39900 106-470): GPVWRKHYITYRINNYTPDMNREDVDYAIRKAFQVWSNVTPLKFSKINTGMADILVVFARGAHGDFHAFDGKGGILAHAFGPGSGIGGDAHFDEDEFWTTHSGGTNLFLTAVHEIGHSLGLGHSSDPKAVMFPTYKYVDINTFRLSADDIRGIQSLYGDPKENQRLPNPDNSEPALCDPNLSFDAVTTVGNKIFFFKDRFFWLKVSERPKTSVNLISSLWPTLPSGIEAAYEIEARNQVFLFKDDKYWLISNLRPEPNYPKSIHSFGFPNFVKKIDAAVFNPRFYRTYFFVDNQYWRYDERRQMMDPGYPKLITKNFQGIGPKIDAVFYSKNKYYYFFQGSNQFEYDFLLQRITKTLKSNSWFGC
Protocol: Determination of the IC50 toward human MMP-2, MMP-9, MMP-12 and MMP-13 was performed by a competitive enzyme activity assay according to a literature procedure. […] The increase in fluorescence over time was measured using a SpectraMax M2e microplate reader (Molecular Devices Inc., CA, USA) with an excitation wavelength of 325 nm and an emission wavelength of 395 nm. The fluorescence intensity after 30 min was plotted as a function of the concentration of each of the compounds on a logarithmic scale to produce an inhibition curve that was subsequently fit with a sigmoidal function by a least squares method. The IC50 values were calculated from the inhibition curves using GraphPad Prism 6 (GraphPad Software, Inc., CA, USA).

recombinant human MMP-13 = biological target: T4, recombinant human MMP-13 (Homo sapiens, UniProt P45452); assay: Competitive fluorogenic enzyme activity assay, MMP-13; conditions: fluorogenic substrate 5 μM, 5 nM enzyme, 30 min; read-out: IC50 toward MMP-13
T4 construct: purchased Anaspec AS72011
Protocol: as §1

SMILES	IC50 (recombinant human MMP-2) [nM]	IC50 (recombinant human MMP-9) [nM]	IC50 (recombinant human MMP-12) [nM]	IC50 (recombinant human MMP-13) [nM]	inverse IC50 ratio (selectivity toward MMP-12) relative to MMP-2 (recombinant human MMP-12; MMP-12 vs MMP-2)	inverse IC50 ratio (selectivity toward MMP-12) relative to MMP-9 (recombinant human MMP-12; MMP-12 vs MMP-9)	inverse IC50 ratio (selectivity toward MMP-12) relative to MMP-13 (recombinant human MMP-12; MMP-12 vs MMP-13)
CC(C)C[C@H](CC(=O)NO)C(=O)N[C@@H](Cc1ccc(I)cc1)C(=O)N[C@@H](CCCCN)C(N)=O [I-ML5]	3.7 ± 1	13.8 ± 1.5	2.3 ± 1.1	11.8 ± 6.3	–	–	–
CC(C)C[C@H](CC(=O)NO)C(=O)N[C@@H](Cc1ccc(I)cc1)C(=O)N[C@@H](CCCCNC(=O)c1ccc(F)cc1)C(N)=O [IPFB]	29.1 ± 9.3	148 ± 30.6	12.3 ± 4	44.5 ± 21.6	–	–	–
CC(C)C[C@H](CC(=O)NO)C(=O)N[C@@H](Cc1ccc(I)cc1)C(=O)N[C@@H](CCCCNC(=O)C(C)F)C(N)=O (stereo partly drawn) [IPFP]	4.4 ± 2.3	8.1 ± 2	1.5 ± 0.8	4.1 ± 1.7	2.9	5.4	2.7
CC(C)C[C@H](CC(=O)NO)C(=O)N[C@@H](Cc1ccccc1)C(=O)N[C@@H](CCCCNC(=O)c1ccc(F)cc1)C(N)=O [PFB]	77.7 ± 4	178 ± 24.2	24.2 ± 14.1	66.1 ± 26.1	–	–	–
CC(C)C[C@H](CC(=O)NO)C(=O)N[C@@H](Cc1ccccc1)C(=O)N[C@@H](CCCCNC(=O)C(C)F)C(N)=O (stereo partly drawn) [PFP]	12.5 ± 7.1	54.1 ± 38.3	4.5 ± 2.5	11.1 ± 6.6	–	–	–
CC(C)C[C@H](CC(=O)NO)C(=O)N[C@@H](Cc1ccc(I)cc1)C(=O)N[C@@H](CCCCNC(=O)C(C)F)C(N)=O (stereo partly drawn) [^18F-IPFP]	–	–	1.5	–	–	–	–
